These results are taken from patent US20230382920A1, “SHMT Inhibitors” (The Trustees of Princeton University, priority 2020, published 2023).

The subject of this assay is HCT116. Nature of the assay: HCT116 growth inhibition assay. The assay is classed as cell-based. Particulars: without formate. How it is done:
Example 5. HCT116 Growth Inhibition and Formate Rescue Assays
3,000 Cells were plated in each well of a 96-well plate with 80 μL of DMEM media supplemented with 10% dFBS, and incubated for 24 hours. Drugs with or without sodium formate (1 mM) were then added to each well to a final volume of 100 μL. Cell growth was measured as fluorescence intensity by resazurin after four days. In short, resazurin was added to each well to a final concentration of 10 μg·mL^−1. After incubation for one hour, fluorescence was measured by a Synergy HT plate reader (BioTek Instruments).
For the compound `Cc1n[nH]c2c1C(c1cc(C#C[C@H]3C[C@H](C(C)(C)O)C3)cc(CO)c1)(C(C)C)C(C#N)=C(N)O2` (stereo partly shown) [KDG-0258-100], the IC50 result is “B″”.
Under `Cc1n[nH]c2c1C(c1cc(C#C[C@H]3C[C@@H](CO)C3)cc(C(C)(C)O)c1)(C(C)C)C(C#N)=C(N)O2` (stereo partly shown) [KDG-0260-100] stands “D″”.
For the compound `Cc1n[nH]c2c1C(c1cc(C#C[C@H]3C[C@H](C(C)(C)O)C3)cc(C(C)(C)O)c1)(C(C)C)C(C#N)=C(N)O2` (stereo partly shown) [KDG-0261], the IC50 result is on record as “C″”.
For `Cc1n[nH]c2c1C(c1cc(C#C[C@H]3C[C@@H](COC(N)=O)C3)cc(C(C)(C)O)c1)(C(C)C)C(C#N)=C(N)O2` (stereo partly shown) [KDG-0262-100], the IC50 entry is given as “C″”.
Under `Cc1n[nH]c2c1C(c1cc(C#C[C@H]3C[C@@H](C(=O)N(C)C)C3)cc(CO)c1)(C(C)C)C(C#N)=C(N)O2` (stereo partly shown) [KDG-0265-100] stands “B″”.
On to `CC(=O)OCC1CC(C#Cc2cc(CO)cc(C3(C(C)C)C(C#N)=C(N)Oc4[nH]nc(C)c43)c2)C1` (stereo not shown) [KDG-0266], for which the IC50 entry is given as “B″”.
For `Cc1n[nH]c2c1C(c1cc(C#C[C@H]3C[C@@](C)(O)C3)cc(CO)c1)(C(C)C)C(C#N)=C(N)O2` (stereo partly shown) [KDG-0268], the IC50 result was “C″”.
On to `CC(=O)O[C@]1(C)C[C@H](C#Cc2cc(CO)cc(C3(C(C)C)C(C#N)=C(N)Oc4[nH]nc(C)c43)c2)C1` (stereo partly shown) [KDG-0269], for which the IC50 result was “B″”.
As to `Cc1n[nH]c2c1C(c1cc(C#CC3CCC(=O)CC3)cc(CO)c1)(C(C)C)C(C#N)=C(N)O2` (stereo not shown) [KDG-0270-100], the IC50 result is “B″”.
In the case of `Cc1n[nH]c2c1C(c1cc(C#CC3CN(C(=O)OC(C)(C)C)C3)cc(CO)c1)(C(C)C)C(C#N)=C(N)O2` (stereo not shown) [KDG-0271-0-pk1], the IC50 result was “A″”.
For the compound `Cc1n[nH]c2c1C(c1cc(C#CC3CN(C(=O)OC(C)(C)C)C3)cc(CO)c1)(C(C)C)C(C#N)=C(N)O2` (stereo not shown) [KDG-0271-0-pk2], the IC50 result is reported as “D″”.
For the compound `Cc1n[nH]c2c1C(c1cc(C#CC3CNC3)cc(CO)c1)(C(C)C)C(C#N)=C(N)O2` (stereo not shown) [KDG-0271-200], the IC50 result was “D″”.
As for `CC(=O)O[C@]1(C)CC[C@H](C#Cc2cc(CO)cc(C3(C(C)C)C(C#N)=C(N)Oc4[nH]nc(C)c43)c2)CC1` (stereo partly shown) [KDG-0272], the IC50 entry is on record as “A″”.
Consider `COC(=O)N1CC(C#Cc2cc(CO)cc(C3(C(C)C)C(C#N)=C(N)Oc4[nH]nc(C)c43)c2)C1` (stereo not shown) [KDG-0281], for which the IC50 entry is given as “B″”.
For the compound `CC(=O)OCc1cc(C#CC2CN(C(=O)OC(C)(C)C)C2)cc(C2(C(C)C)C(C#N)=C(N)Oc3[nH]nc(C)c32)c1` (stereo not shown) [KDG-0284], the IC50 result is “B″”.
`Cc1n[nH]c2c1C(c1cc(C#CC3CCN(C(=O)OC(C)(C)C)C3)cc(CO)c1)(C(C)C)C(C#N)=C(N)O2` (stereo not shown) [KDG-0287]: the IC50 entry was “B″”.
Consider `Cc1n[nH]c2c1C(c1cc(C#CC3CCCN(C(=O)OC(C)(C)C)C3)cc(CO)c1)(C(C)C)C(C#N)=C(N)O2` (stereo not shown) [KDG-0288], for which the IC50 result was “C″”.
Turning to `Cc1n[nH]c2c1C(c1cc(C#CC3CN(C(=O)OC(C)(C)C)C3)cc(COC(=O)C(C)C)c1)(C(C)C)C(C#N)=C(N)O2` (stereo not shown) [KDG-0293], the IC50 entry is reported as “A″”.
For `Cc1n[nH]c2c1C(c1cc(C#CC3CN(C(=O)OC(C)(O)O)C3)cc(COC(=O)C(N)C(C)O)c1)(C(C)C)C(C#N)=C(N)O2` (stereo not shown) [KDG-0294], the IC50 result was “B″”.
Regarding `Cc1n[nH]c2c1C(c1cc(C#CC3(C)CCN(C(=O)OC(C)(C)C)C3)cc(CO)c1)(C(C)C)C(C#N)=C(N)O2` (stereo not shown) [KDG-0304], the IC50 entry is on record as “B″”.
The same measure for `COC(=O)N1CCC(C)(C#Cc2cc(CO)cc(C3(C(C)C)C(C#N)=C(N)Oc4[nH]nc(C)c43)c2)CC1` (stereo not shown) [KDG-0308]: “B″”; for `Cc1n[nH]c2c1C(c1cc(C#C[C@H]3C[C@@H](NC(=O)OC(C)(C)C)C3)cc(CF)c1)(C(C)C)C(C#N)=C(N)O2` (stereo partly shown) [KDG-0383]: “B″”.
